Data from patent publication US20190321365A1, “Maintenance Therapy for the Treatment of Cancer” (Aslan Pharmaceuticals Pte. Ltd., priority 2016, published 2019).
Like-named read-outs stand apart in the source and are kept apart here.

Assays:
breast cancer = conditions: cited from earlier work
[1] = system: gastric tumors co-expressing EGFR and HER2 or HER2 amplified; test: Phase I monotherapy trial in gastric cancer patients, tumor biopsies by immunohistochemistry; format: in vivo, human; conditions: 23 patients, 500 mg orally twice daily, monotherapy for 28 days; biopsies before and after treatment
Procedure: It has been tested as a monotherapy in phase I clinical trials of gastric cancer patients. 23 patients, who had previously failed on one or more rounds of chemotherapy and, where eligible, trastuzumab, each received 500 mg of ASLAN001 orally twice daily as monotherapy for 28 days. Tumor biopsies taken before and after treatment were analysed using immunohistochemistry.

[2] = General tolerability in patients; format: in vivo, human; conditions: in comparison to many anti-cancer treatments
[3] = system: squamous cell carcinoma of the cervix; test: Example 1: maintenance therapy, patient with squamous cell carcinoma of the cervix; format: in vivo, human; conditions: 300 mg bi-daily; one patient, progressing after radiation and chemotherapy
Procedure: A patient diagnosed with squamous cell carcinoma of the cervix was initially treated with radiation therapy and concurrent weekly cisplatin. They had recurring disease the following year. They subsequently received a number of lines of chemotherapy, including topotecan/cisplating and ifosfamide. The cancer continued to progress.
They received 300 mg bi-daily of varlitinib for 6.5 years.
The patient received varlitinib maintenance therapy for about 6.5 years before developing transitional cell carcinoma of the bladder. It is likely that this bladder carcinoma was a result receiving pelvic radiation and/or treatment with ifsoamide.

[4] = system: choloangiocarcinoma (CCA); test: Example 2: maintenance monotherapy, patient with cholangiocarcinoma; format: in vivo, human
Procedure: A person with choloangiocarcinoma (CCA), namely […] adenocarcinoma had already received surgery, was administered varlitinib at a dose of 400 mg bi-daily in combination with doublet chemotherapy for six 28-day cycles. Varlitinib was then used as maintenance therapy as monotherapy for 10 additional cycles, of 28 days of treatment.

[5] = system: intrahepatic cholangiocarcinoma; test: Example 3: trial ASLAN001-002SG, maintenance monotherapy, patient with intrahepatic cholangiocarcinoma; format: in vivo, human
Excerpt: A person ([…]/0013) had the past history of meningioma post left craniotomy for tumor excision in 2007. They were diagnosed with intrahepatic cholangiocarcinoma in July 2013, and received left hemihepatectomy followed by adjuvant chemotherapy (gemcitabine plus cisplatin) from 14 Aug. 2013 to 8 Jan. 2014. Disease relapse was found in […]. Thus, they received systemic treatment with gemcitabine plus cisplatin from 13th May to 1 Jul. 2015. They joined the clinical trial, […]. The study treatment of bi-weekly FOLFOX plus continuous 400 mg varlitinib per oral twice a day started on 4 Aug. 2015. […] 2015, varlitinib was interrupted and reduced to 300 mg twice a day in combination with FOLFOX. After 9 cycles (14 days/cycle) of combined regimen, they continue varlitinib monotherapy.

[6] = system: stage IV cholangiocarcinoma; test: Example 4: trial ASLAN001-002, maintenance monotherapy, patient with stage IV cholangiocarcinoma; format: in vivo, human
Procedure: A person (ASLAN001-002 2A101) had the past history of type 2 diabetes mellitus and hypertension for more than 10 years. They were diagnosed with stage IV cholangiocarcinoma in November 2014.
They joined the clinical trial, ASLAN001-002. The study treatment of cisplatin/5-FU plus continuous 400 mg varlitinib per oral twice a day started on 27 Jan. 2015.
After 6 cycles (28 days/cycle) of combined regimen, […] continued 400 mg varlitinib monotherapy for another 99 days. […] The total treatment duration of varlitinib maintenance therapy was 287 days.
The study treatment was discontinued due to disease progression.

stage IV gastric cancer [7] = test: Example 5: trial ASLAN001-002, maintenance monotherapy, patient with stage IV gastric cancer; format: in vivo, human
Procedure: A person (ASLAN001-002 2A102) had the past history of hypertension for more than 5 years. They were diagnosed with stage IV gastric cancer in April 2015.
They joined the clinical trial, ASLAN001-002. The study treatment of cisplatin/5-FUplus continuous 400 mg varlitinib per oral twice a day started on 12 May 2015. After 6 cycles (28 days/cycle) of combined regimen, they continued 400 mg varlitinib monotherapy for another 112 days. […] The total treatment duration of varlitinib maintenance therapy was 243 days. […] The study treatment was discontinued due to disease progression.

stage IV bladder cancer = test: Example 6: trial ASLAN001-002SG, maintenance monotherapy, patient with stage IV bladder cancer; format: in vivo, human
Excerpt: A person (ASLAN001-002SG DNT/0012) had the past history of type 2 diabetes mellitus, atrial fibrillation, hypertension, hyperlipidemia, and grade 1 hearing loss. They were diagnosed with stage IV bladder cancer and received radical cystoprostatectomy on 13 Dec. 2013. They also received cisplatin based concurrent radiotherapy on 20 Feb. 2014, and gemcitabine plus cisplatin from 10 Apr. to 8 May 2015.
They joined the clinical trial, ASLAN001-002SG. The study treatment of bi-weekly FOLFOX plus continuous 300 mg varlitinib per oral twice a day started on 24 Aug. 2015. After 9 cycles (14 days/cycle) of combined regimen, they continued varlitinib monotherapy. The total treatment duration of varlitinib maintenance therapy was 140 days. […] The study treatment was discontinued due to disease progression.

stage IV gastric cancer [8] = test: Example 7: trial ASLAN001-002, maintenance monotherapy, patient with stage IV gastric cancer; format: in vivo, human
Procedure: A person (ASLAN001-002 2B302) had the underlying disease of gastro-esophageal reflux disease. They were diagnosed with stage IV gastric cancer in Jul. 2016.
They joined the clinical trial, ASLAN001-002. The study treatment of cisplatin/capecitabine plus continuous 300 mg varlitinib per oral twice a day started on 6 Sep. 2016. After 6 cycles (21 days/cycle) of combined regimen, they continue varlitinib monotherapy. The total treatment duration of varlitinib maintenance therapy was 134 days. […] The study treatment was discontinued due to disease progression.

[9] = women who didn't take hormone replacement therapy

Structure (SMILES): CC/C(=C(\c1ccccc1)c1ccc(OCCN(C)C)cc1)c1ccccc1 [tamoxifen]
- reduction of the risk of breast cancer (breast cancer; women at high risk, long-term study): 29%
- effect on the risk of estrogen-receptor-negative breast cancer (breast cancer; women at high risk): didn't reduce the risk
- reduction of the risk of estrogen-receptor-positive breast cancer (breast cancer; women at high risk): 35%
- reduction of the risk of breast cancer (breast cancer; [9]): 38%
- reduction of the risk of estrogen-receptor-positive disease (breast cancer; [9]): 45%

Structure (SMILES): C[C@@H]1COC(Nc2ccc3ncnc(Nc4ccc(OCc5nccs5)c(Cl)c4)c3c2)=N1 [varlitinib, (R)-N4-[3-Chloro-4-(thiazol-2-ylmethoxy)-phenyl]-N6-(4-methyl-4,5,-dihydro-oxazol-2-yl)-quinazoline-4,6-diamine]
- signs of clinical activity in tumor biopsies [1]: downregulation of signalling pathways responsible for cell proliferation, and a reduction in cell survival and cell proliferation
- tolerability [2]: very well tolerated
- duration of maintenance therapy before developing transitional cell carcinoma of the bladder [3]: about 6.5 years
- adverse event leading to dose reduction ([4]; monotherapy 400 mg bi-daily, at cycle 10 day 15): increase in G3 creatinine levels
- target lesion during maintenance therapy ([4]; period of 10 cycles of maintenance therapy): no target lesion was observed
- disease status during maintenance therapy ([4]; person, stage VI adenocarcinoma, monotherapy 400 then 300 mg bi-daily, 10 cycles of 28 days, after six cycles with doublet chemotherapy): stable disease
- adverse event leading to interruption and dose reduction ([5]; 400 mg per oral twice a day in combination with bi-weekly FOLFOX): grade 3 hyperbilirubinemia
- tumor status ([5]; after 504 days of maintenance treatment): partial response
- duration of maintenance treatment to date ([5]; person, monotherapy after 9 cycles with FOLFOX, 300 mg twice a day, ongoing): 504 days
- adverse event leading to dose tapering ([6]; after 99 days of 400 mg monotherapy): creatinine increase
- best tumor response ([6]; non-target disease): non-complete response/non-progressive disease
- total treatment duration of maintenance therapy ([6]; person, 400 mg monotherapy, then 300 mg twice a day 1 week on and 1 week off, discontinued due to disease progression): 287 days
- adverse event leading to dose tapering (stage IV gastric cancer [7]; after 112 days of 400 mg monotherapy): creatinine increase
- best tumor response (stage IV gastric cancer [7]; human, in vivo): partial response
- total treatment duration of maintenance therapy (stage IV gastric cancer [7]; person, 400 mg monotherapy, then 300 mg twice a day, discontinued due to disease progression): 243 days
- best tumor response (stage IV bladder cancer; human, in vivo): stable disease
- total treatment duration of maintenance therapy (stage IV bladder cancer; person, monotherapy after 9 cycles of FOLFOX plus 300 mg twice a day, discontinued due to disease progression): 140 days
- best tumor response (stage IV gastric cancer [8]; human, in vivo): stable disease
- total treatment duration of maintenance therapy (stage IV gastric cancer [8]; person, monotherapy after 6 cycles of cisplatin/capecitabine plus 300 mg twice a day, discontinued due to disease progression): 134 days
